# Results published in patent US5563158A, “Aromatic compounds containing basic and acidic termini useful as fibrinogen receptor antagonists” (The Dupont Merck Pharmaceutical Company, priority 1994, dated 1996).
# Structures can show the parent of a compound that is named as a salt.
# Test system: platelet-rich plasma (PRP) platelets
# Experiment: Platelet aggregation assay (agonist-induced aggregation in human platelet-rich plasma, aggregometer)
# Type: cell-based
# Settings: inhibition of agonist-induced platelet aggregation, test compounds added prior to activation of the platelets
# Procedure: Platelet Aggregation Assay:
# Venous blood was obtained from the arm of a healthy human donor who was drug-free and aspirin-free for at least two weeks prior to blood collection. Blood was collected into 10 mL citrated Vacutainer tubes. The blood was centrifuged for 15 minutes at 150×g at room temperature, and platelet-rich plasma (PRP) was removed. The remaining blood was centrifuged for 15 minutes at 1500×g at room temperature, and platelet-poor plasma (PPP) was removed. Samples were assayed on a aggregometer (PAP-4 Platelet Aggregation Profiler), using PPP as the blank (100% transmittance). 200 μL of PRP was added to each micro test tube, and transmittance was set to 0%. 20 μL of various agonists (ADP, collagen, arachidonate, epinephrine, thrombin) were added to each tube, and the aggregation profiles were plotted (% transmittance versus time). The results are expressed as % inhibition of agonist-induced platelet aggregation. For the IC50 evaluation, the test compounds were added at various concentrations prior to the activation of the platelets.
row,Structure (SMILES),IC50
1,O=C(O)CC1CCCCN1C(=O)c1ccc(OCCC2CCNCC2)cc1 (stereo not shown) [Example 482],51 to 100 µM
2,"N=C(N)c1ccc(OCc2cccc(C(=O)NC[C@H](NC(=O)OCc3ccccc3)C(=O)O)c2)cc1 [Example 53, N^2 -Cbz-N^3-(3-(4-amidinophenyloxymethyl)benzoyl)-L-2,3-diaminopropionic acid TFA salt]",< 10 µM
3,"CCCCOC(=O)N[C@@H](CNC(=O)c1cccc(COc2ccc(C(=N)N)cc2)c1)C(=O)OC [Example 3a, Methyl N-^2-1-butyloxycarbonyl-N^3-(3-(4-amidinophenyloxymethyl)benzoyl)-L-2,3-diaminopropionate TFA salt]",< 10 µM
4,COC(=O)[C@H](CNC(=O)c1cccc(COc2ccc(C(=N)N)cc2)c1)NC(=O)c1ccncc1 [Example 20a],< 10 µM
5,"COC(=O)[C@H](CNC(=O)c1cccc(COc2ccc(C(=N)N)cc2)c1)NS(=O)(=O)c1ccc(C)cc1 [Example 16a, Methyl N^2-p-toluenesulfonyl-N^3-(3-(4-amidinophenyloxymethyl)benzoyl)-L-2,3-diaminopropionate TFA salt]",10 to 50 µM
6,O=C(O)CC1CCCCN1C(=O)c1ccc(OCCCC2CCNCC2)cc1 (stereo not shown) [Example 480],10 to 50 µM
7,"CCCCOC(=O)N[C@@H](CNC(=O)c1cc(OCC2CCN(C(=N)N)CC2)no1)C(=O)OC [Example 479, Methyl N^2-n-butyloxycarbonyl-N-[3-(N-amidino-4-piperidinylmethoxy)-5-isoxazolecarbonyl]-L-2,3-diaminopropionate TFA salt]",< 10 µM
8,"CC(CC(=O)O)NC(=O)c1cccc(OCc2ccc(C(=N)N)cc2)c1 (racemic) [Example 91, N-(3-(4-amidinobenzyloxy)benzoyl)-DL-3-aminobutyric acid TFA salt]",< 10 µM
9,"N=C(N)c1ccc(OCc2cccc(C(=O)NCCC(=O)O)c2)cc1 [Example 27, N-(3-(4-amidinophenyloxymethyl)benzoyl)-3-aminopropionic acid TFA salt]",< 10 µM
10,"COC(=O)[C@H](CNC(=O)c1cccc(COc2ccc(C(=N)N)cc2)c1)NC(=O)CCc1ccccc1 [Example 6a, Methyl N^2-(3-phenylpropionyl)-N^3-(3-(4-amidinophenyloxymethyl)benzoyl)-L-2,3-diaminopropionate TFA salt]",< 10 µM
11,O=C(O)CCNC(=O)c1cccc(OCCCC2CCNCC2)c1 [Example 84a],< 10 µM
12,"CCCCOC(=O)N[C@@H](CNC(=O)c1cc(OCc2ccc(C(=N)N)cc2)no1)C(=O)OC [Example 142, Methyl N^2-n-butyloxycarbonyl-N^3-[3-(4-amidinobenzyloxy)-5 isoxazolecarbonyl]-L-2,3-diaminopropionate TFA salt]",< 10 µM
13,"CCCCOC(=O)N[C@@H](CNC(=O)c1cc(OCc2ccc(C(=N)N)cc2)no1)C(=O)O [Example 123, N^2-n-butyloxycarbonyl-N^3-[3-(4-amidinobenzyloxy)-5-isoxazolecarbonyl]-L-2,3-diaminopropionate TFA salt]",< 10 µM
14,CCOC(=O)C(CNC(=O)c1cccc(COc2ccc(C(=N)N)cc2)c1)NC(=O)OCc1ccccc1 (stereo not shown) [Example 110],10 to 50 µM
15,"CCCCS(=O)(=O)N[C@@H](CNC(=O)c1cccc(COc2ccc(C(=N)N)cc2)c1)C(=O)O [Example 14, N^2-1-butanesulfonyl-N^3-(3-(4-amidinophenyloxymethyl)benzoyl)-2,3-diaminopropionic acid TFA salt]",< 10 µM
16,"COC(=O)[C@H](CNC(=O)c1cccc(COc2ccc(C(=N)N)cc2)c1)NC(=O)c1cccnc1 [Example 19a, Methyl-N^2-nicotinoyl-N^3-[3-(4-amidinophenyloxymethyl)benzoyl]-L-2,3-diaminopropionate, TFA salt]",< 10 µM
17,COC(=O)[C@H](CNC(=O)c1cccc(COc2ccc(C(=N)N)cc2)c1)NC(=O)Cc1ccncc1 [Example 501a],< 10 µM
18,O=C(O)CC1CCCCCN1C(=O)c1ccc(OCCCC2CCNCC2)cc1 (stereo not shown) [Example 481],10 to 50 µM
19,COC(=O)[C@H](CNC(=O)c1cccc(COc2ccc(C(=N)N)cc2)c1)NC(=O)c1ccccn1 [Example 18a],< 10 µM
20,"COC(=O)[C@H](CNC(=O)c1cccc(COc2ccc(C(=N)N)cc2)c1)NC(=O)Cc1cccnc1 [Example 119a, Methyl-N^2-3-pyridylacetoyl-N^3-[3-(4-amidinophenyloxymethyl)benzoyl]-L-2,3-diaminopropionate]",< 10 µM
21,"O=C(O)CCNC(=O)c1ccc(OCCCC2CCNCC2)cc1 [Example 84b, TFA salt]",< 10 µM
22,COC(=O)[C@H](CNC(=O)c1cccc(COc2ccc(C(=N)N)cc2)c1)NC(=O)Cc1ccccn1 [Example 500a],< 10 µM
23,"Cc1ccc(S(=O)(=O)N[C@@H](CNC(=O)c2cccc(COc3ccc(C(=N)N)cc3)c2)C(=O)O)cc1 [Example 16, N^2-p-toluenesulfonyl-N^3-(3-(4-amidinophenyloxymethyl)benzoyl)-L-2,3-diaminopropionic acid TFA salt]",< 10 µM
24,"CC(CC(=O)O)NC(=O)c1cccc(COc2ccc(C(=N)N)cc2)c1 (racemic) [Example 85, N-(3-(4-Amidinophenyloxymethyl)benzoyl)-DL-3-aminobutyric acid TFA salt]",< 10 µM
25,"N=C(N)c1ccc(COc2cccc(C(=O)NC(CC(=O)O)C(F)(F)F)c2)cc1 (racemic) [Example 92, N-(3-(4-amidinobenzyloxy)benzoyl)-DL-3-amino-4,4,4-trifluorobutyric acid TFA salt]",51 to 100 µM
